This note sets out measurements from patent US20240116845A1, “INDENE COMPOUNDS, PHARMACEUTICAL COMPOSITIONS THEREOF, AND THEIR THERAPEUTIC APPLICATIONS” (NucMito Pharmaceuticals Co., Ltd., priority 2021, published 2024).

For orientation: inhibition means the change of the read-out against control, counted positive when it falls.

Holding throughout (type): cell-based
The test system of experiment [1] is alpha-smooth muscle actin (α-SMA). Description: Inhibition of TGF-β induced expression of alpha-smooth muscle actin in CFSC cells (western blot). The note with it: compound at 10 μM, TGF-β (10 ng/mL), 24 hours. Summed up:
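Read-out is percent decrease in α-SMA western-blot band intensity, β-actin also probed, relative to TGF-β-only cells. CFSC cells were co-treated for 24 h at 37 °C with 10 ng/mL TGF-β and 10 μM compound in serum-free DMEM.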
For orientation: A western blot detects proteins with antibodies after separation by electrophoresis.

Experiment [2] deals with A431 (epidermoid carcinoma). Briefly: Antiproliferative activity, CCK-8 cell viability. The settings on record: Homo sapiens, A-431, 72 h, read-out: Inhibition of Cancerous Cells, A431; for inhibition at 3.3 µM: compound concentration of 3.3 μM; for inhibition at 10 µM: compound concentration of 10 μM; for inhibition at 30 µM: compound concentration of 30 μM. How it is done:
(§1) The antiproliferative activity of a compound was determined in the following cell lines: MDA-MB-231 (breast cancer), HepG2 (liver cancer), SW480 (colon cancer), B16F10 (malignant melanoma), A431 (epidermoid carcinoma), A549 (lung adenocarcinoma), and HeLa (cervical cancer). MDA-MB-231, HepG2, SW480, B16F10, and A431 cells were cultured in Dulbecco's modified Eagle's medium (DMEM) containing 10% fetal bovine serum (FBS). HeLa cells were cultured in MEM/EBSS (MEM) containing 10% FBS. A549 cells were maintained in Kaighn's modification of Ham's F-12 medium containing 10% FBS. The Cell Counting Kit-8 (CCK-8) assay was used to determine the cell viability of cells following treatment with the compound.
(§2) Briefly, cells were seeded in a 96-well plate at a density of 2,000-5,000 cells/well. Following attachment, the cells were treated with the compound in media at a compound concentration of 3.3 μM, 10 μM, or 30 μM, or DMSO as a control. After the cells were incubated at 37° C. for 72 h, the CCK-8 solution (10 μL) was added to each well. After incubation at 37° C. for 4 h, the absorbance value of each well was determined using a multi-well plate reader at 450 nm. The percentage of cell viability was determined with respect to the DMSO-treated cells. The results were summarized in Table 2-4 below, wherein A represents no less than 50% inhibition of cell growth; B represents less than 50% but no less than 30% inhibition of cell growth; C represents less than 30% inhibition of cell growth.

In experiment [3] the test system is A549 (lung adenocarcinoma). Briefly: Antiproliferative activity, CCK-8 cell viability. The settings on record: Homo sapiens, 72 h, read-out: Inhibition of Cancerous Cells, A549; for inhibition at 3.3 µM: compound concentration of 3.3 μM; for inhibition at 10 µM: compound concentration of 10 μM; for inhibition at 30 µM: compound concentration of 30 μM. As for the experimental part:
as §1, §2

Experiment [4] has as its system B16F10 (malignant melanoma). Description: Antiproliferative activity, CCK-8 cell viability. The note with it: Mus musculus, B16-F10, 72 h, read-out: Inhibition of Cancerous Cells, B16F10; for inhibition at 3.3 µM: compound concentration of 3.3 μM; for inhibition at 10 µM: compound concentration of 10 μM; for inhibition at 30 µM: compound concentration of 30 μM. How it is done: as §1, §2

Experiment [5] concerns HeLa (cervical cancer). Briefly: Antiproliferative activity, CCK-8 cell viability. The settings on record: Homo sapiens, 72 h, read-out: Inhibition of Cancerous Cells, HELA; for inhibition at 3.3 µM: compound concentration of 3.3 μM; for inhibition at 10 µM: compound concentration of 10 μM; for inhibition at 30 µM: compound concentration of 30 μM. How it is done:
as §1, §2

For experiment [6], the system named is HepG2 (liver cancer). Briefly: Antiproliferative activity, CCK-8 cell viability. The settings on record: Homo sapiens, 72 h, read-out: Inhibition of Cancerous Cells, HepG2; for inhibition at 3.3 µM: compound concentration of 3.3 μM; for inhibition at 10 µM: compound concentration of 10 μM; for inhibition at 30 µM: compound concentration of 30 μM. As for the experimental part: as §1, §2

Experiment [7] relates to MDA-MB-231 (breast cancer). Briefly: Antiproliferative activity, CCK-8 cell viability. The settings on record: Homo sapiens, 72 h, read-out: Inhibition of Cancerous Cells, MDA-MB-231; for inhibition at 3.3 µM: compound concentration of 3.3 μM; for inhibition at 10 µM: compound concentration of 10 μM; for inhibition at 30 µM: compound concentration of 30 μM. As for the experimental part:
as §1, §2

Experiment [8] has as its system SW480 (colon cancer). Description: Antiproliferative activity, CCK-8 cell viability. The note with it: Homo sapiens, 72 h, read-out: Inhibition of Cancerous Cells, SW480; for inhibition at 3.3 µM: compound concentration of 3.3 μM; for inhibition at 10 µM: compound concentration of 10 μM; for inhibition at 30 µM: compound concentration of 30 μM. How it is done:
as §1, §2

Where only a bound is given, the exact number is not on record here.

As to `CC1=C(CC(=O)O)c2cc(F)ccc2/C1=C\c1cccc(COc2ccc(F)cc2)c1` [Compound A6, 2-[(1Z)-5-Fluoro-1-({3-[(4-fluorophenoxy)methyl]phenyl}methylidene)-2-methyl-1H-inden-3-yl]acetic acid], the inhibition at 10 µM in experiment [1] is at least 80%; in experiment [2], at least 50%; in experiment [3] it was 30 to 50%; in experiment [4], 30 to 50%; in experiment [5] it was at least 50%; in experiment [6] it was at least 50%. The inhibition at 10 µM in experiment [7] and in experiment [8] was at least 50% throughout. Moreover, the inhibition at 3.3 µM in experiment [2] is 30 to 50%; in experiment [3], under 30%; in experiment [4] it was under 30%; in experiment [5] it was at least 50%; in experiment [6] it was at least 50%; in experiment [7], at least 50%. Further, the inhibition at 3.3 µM in experiment [8] is under 30%. Further, the inhibition at 30 µM in experiment [2], in experiment [3], in experiment [4], in experiment [5], in experiment [6] and in experiment [7] was at least 50% throughout. For the same molecule, in experiment [8], the inhibition at 30 µM is at least 50%.

As to `CC1=C(CC(=O)O)c2cc(F)ccc2/C1=C\c1ccc(CCc2ccccc2)cc1` [Compound A8, 2-[(1Z)-5-Fluoro-2-methyl-1-{[4-(2-phenylethyl)phenyl]methylidene}-1H-inden-3-yl]acetic acid], the inhibition at 10 µM in experiment [1] was at least 80%; in experiment [2], at least 50%; in experiment [3], at least 50%; in experiment [4], under 30%; in experiment [5], under 30%; in experiment [6] it was 30 to 50%. Further, the inhibition at 10 µM in experiment [7] and in experiment [8] was at least 50% throughout. Moreover, the inhibition at 3.3 µM in experiment [2] is 30 to 50%; in experiment [3], under 30%; in experiment [4], under 30%; in experiment [5] it was under 30%; in experiment [6], 30 to 50%; in experiment [7] it was 30 to 50%. Also, the inhibition at 3.3 µM in experiment [8] is 30 to 50%. Also, the inhibition at 30 µM in experiment [2], in experiment [3], in experiment [4], in experiment [5], in experiment [6] and in experiment [7] was at least 50% in each case. For the same molecule, the inhibition at 30 µM in experiment [8] is at least 50%.

For `CC1=C(CC(=O)O)c2cc(F)ccc2/C1=C\c1ccc(CN(C)c2ccccc2)cc1` [Compound A9, 2-[(1Z)-5-Fluoro-2-methyl-1-[(4-{[methyl(phenyl)amino]methyl}phenyl)-methylidene]-1H-inden-3-yl]acetic acid], the inhibition at 10 µM in experiment [1] was at least 80%; in experiment [2], at least 50%; in experiment [3], at least 50%; in experiment [4] it was at least 50%; in experiment [5], 30 to 50%; in experiment [6] it was under 30%. Moreover, the inhibition at 10 µM in experiment [7] and in experiment [8] was at least 50% each time. For the same molecule, the inhibition at 3.3 µM is under 30% in experiment [2]; at least 50% in experiment [3]; at least 50% in experiment [4]; under 30% in experiment [5]; under 30% in experiment [6]; 30 to 50% in experiment [7]. Moreover, in experiment [8], the inhibition at 3.3 µM was at least 50%. The inhibition at 30 µM in experiment [2], in experiment [3], in experiment [4], in experiment [5], in experiment [6] and in experiment [7] was at least 50% in each case. The inhibition at 30 µM in experiment [8] was at least 50%.

On to `CC1=C(CC(=O)O)c2cc(F)ccc2/C1=C\c1ccc(CN(Cc2ccccc2)c2ccccc2)cc1` [Compound A10, 2-[(1Z)-1-[(4-{[Benzyl(phenyl)amino]methyl}phenyl)methylidene]-5-fluoro-2-methyl-1H-inden-3-yl]acetic acid], for which the inhibition at 10 µM in experiment [1] was at least 80%; in experiment [2] it was at least 50%; in experiment [3], at least 50%; in experiment [4], at least 50%; in experiment [5] it was at least 50%; in experiment [6], at least 50%. In addition, the inhibition at 10 µM in experiment [7] and in experiment [8] was at least 50% each time. The inhibition at 3.3 µM was at least 50% in experiment [2]; 30 to 50% in experiment [3]; under 30% in experiment [4]; at least 50% in experiment [5]; at least 50% in experiment [6]; at least 50% in experiment [7]. The inhibition at 3.3 µM in experiment [8] is at least 50%. Moreover, the inhibition at 30 µM in experiment [2], in experiment [3], in experiment [4], in experiment [5], in experiment [6] and in experiment [7] was at least 50% in each case. The inhibition at 30 µM in experiment [8] was at least 50%.

With `COc1cccc2c1C(CC(=O)O)=C(C)/C2=C/c1ccc(COc2ccccc2)cc1` [Compound A11], the inhibition at 10 µM in experiment [1] was under 30%; in experiment [2], at least 50%; in experiment [3], 30 to 50%; in experiment [4], at least 50%; in experiment [5] it was under 30%; in experiment [6] it was at least 50%. In addition, the inhibition at 10 µM in experiment [7] is 30 to 50%; in experiment [8], at least 50%. For the same molecule, the inhibition at 3.3 µM in experiment [2] was at least 50%; in experiment [3], 30 to 50%; in experiment [4], at least 50%; in experiment [5] it was under 30%; in experiment [6], 30 to 50%; in experiment [7], under 30%. Further, the inhibition at 3.3 µM in experiment [8] was at least 50%. Besides, the inhibition at 30 µM in experiment [2] was at least 50%; in experiment [3] it was 30 to 50%; in experiment [4], at least 50%; in experiment [5] it was under 30%; in experiment [6], at least 50%; in experiment [7] it was at least 50%. Also, the inhibition at 30 µM in experiment [8] was at least 50%.
